In data set [1] the test system is primary hamster sebocytes (Ha-SE). The experiment in a line: insulin-induced sebum synthesis (lipogenesis) assay in hamster sebocytes. Conditions: 10 and 30 μmol/L; 10 μg/mL insulin; 8 days. Format: cell-based. How it is done: (§1) Primary hamster sebocytes (Ha-SE) were purchased from Kurabo Industries (Osaka, Japan) and maintained in a culture medium containing […] epidermal growth factor (EGF), 2% (v/v) human serum (HS), 8% (v/v) heat-inactivated fetal bovine serum (FBS) (Kurabo Industries), and a cocktail of penicillin G and streptomycin (Sigma-Aldrich). All assays using Ha-SE cells were performed between the 5th and 6th passage. For the study dealing with sebum synthesis, a sebum detecting kit (Kurabo industries) was used. […] The amount of sebum synthesized was evaluated by measuring lipid production and cell growth according to the manufacturer's instructions. That is, the lipid in sebaceous cells was stained with Oil Red O, extracted in 100% isopropanol, and quantified by a spectrometer at 520 nm. The cell growth was measured using XTT reagent (Biological Industries, Beit Haemek, Israel). The lipogenesis was calculated following the formula as relative sebum synthesis per cell number: lipogenesis = A/B, where A = OD 520 nm of 200 μL extract solution of 300 μL 100% isopropanol for extract of Oil red O dye and B = OD 465/630 nm of 200 μL of 450 μL culture fluids containing XTT reagent following incubation for 30 min. […]

For data set [2], the target named is T1, rat liver microsomal 5α-reductase (Rattus norvegicus, UniProt P24008).
T1 construct: The reaction was started with the addition of liver microsomes (20 μg protein); from tissue; host or cells: liver microsomes of male Sprague–Dawley rats
T1 sequence (P24008 1-259): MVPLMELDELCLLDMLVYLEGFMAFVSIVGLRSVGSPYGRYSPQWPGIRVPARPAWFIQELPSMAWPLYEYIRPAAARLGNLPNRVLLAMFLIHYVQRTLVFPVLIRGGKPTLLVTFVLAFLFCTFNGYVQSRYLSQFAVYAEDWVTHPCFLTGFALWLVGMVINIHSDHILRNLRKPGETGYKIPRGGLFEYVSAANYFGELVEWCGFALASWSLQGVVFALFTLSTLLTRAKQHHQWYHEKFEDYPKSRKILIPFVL
Briefly: 5α-reductase assay using rat liver microsomes (testosterone metabolism, HPLC and TLC). Format: biochemical. The following applies: for Inhibitory activity on 5α-reductase (% of control): mean ± SEM, N = 3. How it is done:
Rat liver microsomes were prepared by the method of Lee et al.. Male Sprague–Dawley rats (body weight, 300 to 320 g; Clea Japan, Tokyo, Japan) were fasted overnight to decrease the concentration of liver glycogen and then sacrificed. The liver was excised and washed in ice-cold homogenizing buffer containing 0.32 mol/L sucrose, 1 mmol/L dithiothreitol (Wako Pure Chemical Industries), and 20 mmol/L potassium phosphate, pH 6.5. The following procedures were all carried out at 4°C. The tissue was minced with a pair of scissors and then homogenized in homogenizing buffer using a Potter-Elvehjem grinder. The homogenate was then centrifuged at 10 000 g for 10 min. The resulting pellet was washed with two pellet volumes of homogenizing buffer and centrifuged again. The supernatants from the two centrifugations were combined and further centrifuged at 105 000 g for 1 h. The resulting pellet (microsomes) was suspended in homogenizing buffer and centrifuged again. The microsomes were resuspended in homogenizing buffer. The microsome suspension was divided into small aliquots and stored at −80°C. The microsomes were diluted with 40 mmol/L potassium phosphate, pH 6.5, immediately before use. Unlike human liver, rat liver microsomes have the 5α-R1 but not the 5α-R2 isoform.
Briefly, the reaction solution was preincubated with or without a test sample in 1 mmol/L dithiothreitol, 40 mmol/L potassium phosphate, pH 6.5, 100 μmol/L NADPH (Oriental Yeast, Tokyo, Japan), and 3.5 μmol/L testosterone (Wako Pure Chemical Industries) in a final volume of 0.5 mL for 20 min at room temperature. The reaction was started with the addition of liver microsomes (20 μg protein). After incubation at 37°C for 30 min, the reaction solution was extracted with 2 mL ethyl acetate. The ethyl acetate phase (upper phase) was transferred to a tube and evaporated using a centrifugal concentrator (Tomy Seiko, Tokyo, Japan). Testosterone and the metabolites were measured by two chromatography methods, HPLC (Shimadzu, Kyoto, Japan) and TLC.
The residue was dissolved in acetonitrile and analyzed using the HPLC system. The reverse-phase HPLC analysis was performed on a C18 column (3.0 × 150 mm, GL Science, Japan) at a column oven temperature of 50°C and UV detection of 240 nm. The isocratic mobile phase of acetonitrile/water (50 : 50, v/v) was flowed at 0.4 mL/min through the column.
To detect the steroids by TLC, the residue containing steroids was taken up in ethanol and chromatographed on a TLC plate (Silica gel 60 F254, Merck, Darmstadt, Germany), using ethyl acetate-hexane (1 : 1, v/v) as the developing solvent system at room temperature. Testosterone, (Tokyo Chemical Industry Co., Tokyo, Japan) and 5α-androstane-3α,17β-diol (Sigma-Aldrich) were applied to TLC as androgen standards. The plate was exposed to 10% sulfuric acid using an atomizer and then heated on a hot plate. The fluorescent signals were visualized by irradiation of UV light at 302 nm using a ChemiDoc XRS Plus (BIO-RAD, Hercules, CA).
Background: Microsomes from liver hold many membrane-bound enzymes, among them those of drug oxidation.

Data set [3] has as its system human intestinal epithelial Caco-2 cells. Also on record: method as in PMID 16890919, PMID 16580640. Conditions: transport inhibited by phlorizin (SGLT-1 inhibitor); ref [34], [35]; cited from earlier work.
The subject of data set [4] is primary hamster sebocytes (Ha-SE). The experiment in a line: testosterone-induced sebum synthesis (lipogenesis) assay in hamster sebocytes. Format: cell-based. The following applies: 10 and 30 μmol/L; 10 μmol/L testosterone; 8 days. How it is done: as §1
Data set [5] has the same test system. Briefly: cell cytotoxicity (XTT) in undifferentiated hamster sebocytes. The following applies: 24 h with BK (10, 30 μg/mL) or pentagalloyl glucose (10, 30 μmol/L) in the presence of EGF. How it is done:
Four Figures and Two Tables
Hamster-derived sebaceous gland cells (Ha-SE) were precultured until confluent in the presence of 10 ng/mL epidermal growth factor (EGF), and further cultured with 10, 30 […]
vehicle in the presence of EGF. Twenty four hours later, cell cytotoxicity was measured […]
Fig. S2. Bioconversion of exogenous dihydrotestosterone to 5α-androstane-3,17-diol by rat liver microsomal enzymes […]
min in the presence or absence of rat liver microsomes (40 μg/mL) and the co-factors.
The metabolites were extracted with ethyl acetate after incubation, and analyzed by TLC. All androgen standards were applied at 0.1 μg/μL/spot. T.: testosterone, DHT: dihydrotestosterone, A.diol: 5α-androstane-3α,17β-diol
Background: Formazan colour is commonly taken as a measure of viable cells.

Consider one compound from PMC4325551, “Inhibition of Rat 5α-Reductase Activity and Testosterone-Induced Sebum Synthesis in Hamster Sebocytes by an Extract of Quercus acutissima Cortex” (Evidence-based Complementary and Alternative Medicine : eCAM, 2015).

Usually IC50 stands for the concentration that gives 50% inhibition. Low readings indicate greater potency in that assay, high ones weaker potency in that assay. Turning to `O=C(OC[C@H]1O[C@@H](OC(=O)c2cc(O)c(O)c(O)c2)[C@H](OC(=O)c2cc(O)c(O)c(O)c2)[C@@H](OC(=O)c2cc(O)c(O)c(O)c2)[C@@H]1OC(=O)c1cc(O)c(O)c(O)c1)c1cc(O)c(O)c(O)c1` [Pentagalloyl glucose, 1,2,3,4,6-penta-O-galloyl glucose], in data set [1], the insulin-induced lipogenesis entry was “significantly downregulated”. Moreover, the “inhibition of 5α-reductase activity” value in data set [2] (at 10 and 100 μmol/L) is listed as “more than 50%”. For the same compound, the “Inhibitory activity on 5α-reductase (% of control)” value in data set [2] (test sample 0.1 μmol/L, testosterone 3.5 μmol/L, 30 min, rat liver microsomes 40 μg/mL, HPLC) is 5.4 ± 1.3 % of control; in data set [2] (test sample 1 μmol/L, testosterone 3.5 μmol/L, 30 min, rat liver microsomes 40 μg/mL, HPLC), 36.1 ± 6.5 % of control; in data set [2] (test sample 10 μmol/L, testosterone 3.5 μmol/L, 30 min, rat liver microsomes 40 μg/mL, HPLC), 83.5 ± 1.3 % of control; in data set [2] (test sample 100 μmol/L, testosterone 3.5 μmol/L, 30 min, rat liver microsomes 40 μg/mL, HPLC), 107.9 ± 2.2 % of control. The compound further gave an IC50 in data set [2] (testosterone 3.5 μmol/L, 30 min, rat liver microsomes 40 μg/mL, HPLC) of 2500 nM. Also, in data set [3], the “transport across Caco-2 monolayer” value was “crosses a monolayer”. For the same compound, the testosterone-induced lipogenesis entry in data set [4] was “significantly downregulated”. Further, in data set [5], the cell metabolic activities result was “not changed compared with the vehicle control”.
